Source: patent US8889874B2, “Imidazolone-chalcone derivatives as potential anticancer agent and process for the preparation thereof” (Council of Scientific and Industrial Research, priority 2010, dated 2014)
Where two headings read alike, the source gives them in different places.

How the values were obtained:
Experiment in all cases: NCI anticancer screen, SRB assay, 48 h
Type in all cases: cell-based, human
[1] = test system: COLO 205 (colon); details: Homo sapiens, COLO 205
Method in brief: (§1)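 Compounds were tested across fifty three human cancer cell lines from nine tumour types. Each line got a dose-response curve of at least five concentrations at 10-fold dilutions, with continuous drug exposure and sulforhodamine B protein staining to estimate viability or growth.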

[2] = test system: 786-0 (renal); details: Homo sapiens
Method in brief: as §1

[3] = test system: SNB-19 (CNS); details: Homo sapiens
Method in brief: as §1

[4] = test system: HT29 (colon); details: Homo sapiens
Method in brief: as §1

[5] = test system: NCI-H322M (non-small cell lung); details: Homo sapiens
Method in brief: as §1

[6] = test system: PC-3 (prostate); details: Homo sapiens
Method in brief: as §1

[7] = test system: LOX IMVI (melanoma); details: Homo sapiens
Method in brief: as §1

[8] = test system: NCI-H226 (non-small cell lung); details: Homo sapiens
Method in brief: as §1

[9] = test system: KM12 (colon); details: Homo sapiens
Method in brief: as §1

[10] = test system: OVCAR-3 (ovarian); details: Homo sapiens
Method in brief: as §1

[11] = test system: BT-549 (breast); details: Homo sapiens
Method in brief: as §1

[12] = test system: SK-MEL-2 (melanoma); details: Homo sapiens
Method in brief: as §1

[13] = test system: UACC-257 (melanoma); details: Homo sapiens
Method in brief: as §1

[14] = test system: SF-539 (CNS); details: Homo sapiens
Method in brief: as §1

[15] = test system: EKVX (non-small cell lung); details: Homo sapiens
Method in brief: as §1

[16] = test system: NCI-H522 (non-small cell lung); details: Homo sapiens
Method in brief: as §1

[17] = test system: SN12C (renal); details: Homo sapiens, SN12C
Method in brief: as §1

[18] = test system: NCI/ADR-RES (ovarian); details: Homo sapiens, NCI/ADR-RES
Method in brief: as §1

[19] = test system: TK-10 (renal); details: Homo sapiens
Method in brief: as §1

[20] = test system: SF-295 (CNS); details: Homo sapiens
Method in brief: as §1

[21] = test system: M14 (melanoma); details: Homo sapiens
Method in brief: as §1

[22] = test system: U251 (CNS); details: Homo sapiens
Method in brief: as §1

[23] = test system: CAKI-1 (renal); details: Homo sapiens
Method in brief: as §1

[24] = test system: A549/ATCC (non-small cell lung); details: Homo sapiens
Method in brief: as §1

[25] = test system: RPMI-8226 (leukemia cell line); details: Homo sapiens
Method in brief: as §1

[26] = test system: MCF7 (breast); details: Homo sapiens
Method in brief: as §1

[27] = test system: RXF 393 (renal); details: Homo sapiens
Method in brief: as §1

[28] = test system: SK-OV-3 (ovarian); details: Homo sapiens
Method in brief: as §1

[29] = test system: SF-268 (CNS); details: Homo sapiens
Method in brief: as §1

[30] = test system: ACHN (renal); details: Homo sapiens
Method in brief: as §1

[31] = test system: OVCAR-8 (ovarian); details: Homo sapiens
Method in brief: as §1

[32] = test system: UACC-62 (melanoma); details: Homo sapiens
Method in brief: as §1

[33] = test system: SK-MEL-5 (melanoma); details: Homo sapiens
Method in brief: as §1

[34] = test system: SW-620 (colon); details: Homo sapiens
Method in brief: as §1

[35] = test system: MALME-3M (melanoma); details: Homo sapiens
Method in brief: as §1

[36] = test system: OVCAR-5 (ovarian); details: Homo sapiens
Method in brief: as §1

[37] = COLO205, read-out: pGI50 (-log of molar concentration causing 50% inhibition of net cell growth) (converted)
[38] = 48 h exposure, SRB, read-out: GI50
[39] = read-out: pGI50 (-log of molar concentration causing 50% inhibition of net cell growth) (converted)
[40] = HT-29, 48 h exposure, SRB, read-out: GI50
[41] = HT-29, read-out: pGI50 (-log of molar concentration causing 50% inhibition of net cell growth) (converted)
[42] = PC-3, read-out: pGI50 (-log of molar concentration causing 50% inhibition of net cell growth) (converted)
[43] = one prostate cancer cell line (PC-3), exposure at least 48 hrs, read-out: GI50
[44] = SN 12C, read-out: pGI50 (-log of molar concentration causing 50% inhibition of net cell growth) (converted)
[45] = NCl/ADR-RES, 48 h exposure, SRB, read-out: GI50
[46] = U-251, 48 h exposure, SRB, read-out: GI50
[47] = U-251, read-out: pGI50 (-log of molar concentration causing 50% inhibition of net cell growth) (converted)
[48] = RXF 393, 48 h exposure, SRB, read-out: GI50
[49] = RXF-393, read-out: pGI50 (-log of molar concentration causing 50% inhibition of net cell growth) (converted)
[50] = Malme-3M, read-out: pGI50 (-log of molar concentration causing 50% inhibition of net cell growth) (converted)
[51] = MALME-3M, 48 h exposure, SRB, read-out: GI50

COc1cc(/C=C/C(=O)c2cccc(-n3cc(-c4cc(OC)c(OC)c(OC)c4)[nH]c3=O)c2)cc(OC)c1OC [5d, 4-(3,4,5-trimethoxyphenyl)-1-3-[(E)-3-(3,4,5-trimethoxyphenyl)-2-propenoyl]phenyl-2,3-dihydro-1H-2-imidazolone] gave a GI50 [1, 37] of 1.51 µM, a GI50 [1, 38] of 1.52 µM and a GI50 [2, 38] of 1.59 µM. The GI50 [2, 39] was 1.58 µM, the GI50 [3, 38] was 4.07 µM and the GI50 [3, 39] was 4.07 µM. It also gave a GI50 [4, 40] of 1.7 µM, a GI50 [4, 41] of 1.7 µM and a GI50 [5, 38] of 3.61 µM. For the same compound, the GI50 [5, 39] was 3.63 µM, the GI50 [6, 42] was 2.63 µM and the GI50 [6, 43] was 2.63 µM. The GI50 [7, 38] was 1.23 µM, the GI50 [7, 39] was 1.23 µM and the GI50 [8, 38] was 14.4 µM. The GI50 [8, 39] was 14.5 µM, the GI50 [9, 38] was 1.12 µM and the GI50 [9, 39] was 1.12 µM. For the same compound, the GI50 [10, 38] was 1.48 µM, the GI50 [10, 39] was 1.48 µM and the GI50 [11, 38] was 1.52 µM. The GI50 [11, 39] was 1.51 µM, the GI50 [12, 38] was 3.02 µM and the GI50 [12, 39] was 3.02 µM. It also gave a GI50 [13, 38] of 2.22 µM, a GI50 [13, 39] of 2.24 µM and a GI50 [14, 38] of 3.12 µM. The GI50 [14, 39] was 3.09 µM, the GI50 [15, 38] was 9.47 µM and the GI50 [15, 39] was 9.55 µM. The GI50 [16, 38] was 1.05 µM, the GI50 [16, 39] was 1.05 µM and the GI50 [17, 44] was 2.75 µM. It also gave a GI50 [17, 38] of 2.75 µM, a GI50 [18, 45] of 2.1 µM and a GI50 [18, 39] of 2.09 µM. For the same compound, the GI50 [19, 38] was 3 µM, the GI50 [19, 39] was 3.02 µM and the GI50 [20, 38] was 4.96 µM. The GI50 [20, 39] was 5.01 µM, the GI50 [21, 38] was 2.12 µM and the GI50 [21, 39] was 2.14 µM. It also gave a GI50 [22, 46] of 1.23 µM, a GI50 [22, 47] of 1.23 µM and a GI50 [23, 38] of 2.89 µM. The GI50 [23, 39] was 2.88 µM, the GI50 [24, 38] was 3.03 µM and the GI50 [24, 39] was 3.02 µM. For the same compound, the GI50 [25, 38] was 0.23 µM, the GI50 [25, 39] was 0.229 µM and the GI50 [26, 38] was 0.47 µM. For the same compound, the GI50 [26, 39] was 0.468 µM, the GI50 [27, 48] was 1.62 µM and the GI50 [27, 49] was 1.62 µM. It also gave a GI50 [28, 38] of 5.12 µM, a GI50 [28, 39] of 5.13 µM and a GI50 [29, 38] of 2.2 µM. It also gave a GI50 [29, 39] of 2.19 µM, a GI50 [30, 38] of 1.74 µM and a GI50 [30, 39] of 1.74 µM. The GI50 [31, 38] was 2.32 µM, the GI50 [31, 39] was 2.34 µM and the GI50 [32, 38] was 1.87 µM. For the same compound, the GI50 [32, 39] was 1.86 µM, the GI50 [33, 38] was 2.76 µM and the GI50 [33, 39] was 2.75 µM. For the same compound, the GI50 [34, 38] was 1.03 µM, the GI50 [34, 39] was 1.02 µM and the GI50 [35, 50] was 1.82 µM. The GI50 [35, 51] was 1.8 µM, the GI50 [36, 38] was 4.38 µM and the GI50 [36, 39] was 4.37 µM.
For COc1ccc(-c2cn(-c3cccc(C(=O)/C=C/c4ccc(O)c(OC)c4)c3)c(=O)[nH]2)cc1 [3b, 1-3-[(E)-3-(4-hydroxy-3-methoxyphenyl)-2-propenoyl]phenyl-4-(4-methoxyphenyl)-2,3-dihydro-1H-2-imidazolone], the GI50 [1, 37] was 6.61 µM, the GI50 [1, 38] was 6.61 µM and the GI50 [2, 38] was 4.53 µM. For the same compound, the GI50 [2, 39] was 4.57 µM, the GI50 [3, 38] was 5.84 µM and the GI50 [3, 39] was 5.89 µM. It also gave a GI50 [4, 40] of 3.84 µM, a GI50 [4, 41] of 3.8 µM and a GI50 [5, 38] of 8.2 µM. It also gave a GI50 [5, 39] of 8.13 µM, a GI50 [6, 42] of 3.02 µM and a GI50 [6, 43] of 3.05 µM. For the same compound, the GI50 [7, 38] was 2.44 µM, the GI50 [7, 39] was 2.45 µM and the GI50 [8, 38] was 4.1 µM. It also gave a GI50 [8, 39] of 4.07 µM, a GI50 [9, 38] of 1.77 µM and a GI50 [9, 39] of 1.78 µM. It also gave a GI50 [10, 38] of 2.7 µM, a GI50 [10, 39] of 2.69 µM and a GI50 [11, 38] of 4.57 µM. It also gave a GI50 [11, 39] of 4.57 µM, a GI50 [12, 38] of 5.54 µM and a GI50 [12, 39] of 5.5 µM. For the same compound, the GI50 [13, 38] was 13.3 µM, the GI50 [13, 39] was 13.2 µM and the GI50 [14, 38] was 2.25 µM. It also gave a GI50 [14, 39] of 2.24 µM, a GI50 [15, 38] of 13.4 µM and a GI50 [15, 39] of 13.5 µM. It also gave a GI50 [16, 38] of 3.48 µM, a GI50 [16, 39] of 3.47 µM and a GI50 [17, 44] of 4.07 µM. For the same compound, the GI50 [17, 38] was 4.11 µM, the GI50 [18, 45] was 2.56 µM and the GI50 [18, 39] was 2.57 µM. For the same compound, the GI50 [19, 38] was 6.08 µM, the GI50 [19, 39] was 6.03 µM and the GI50 [20, 38] was 13.9 µM. For the same compound, the GI50 [20, 39] was 13.8 µM, the GI50 [21, 38] was 5.14 µM and the GI50 [21, 39] was 5.13 µM. For the same compound, the GI50 [22, 46] was 3.45 µM, the GI50 [22, 47] was 3.47 µM and the GI50 [23, 38] was 4.99 µM. It also gave a GI50 [23, 39] of 5.01 µM, a GI50 [24, 38] of 4.14 µM and a GI50 [24, 39] of 4.17 µM. The GI50 [25, 38] was 1.35 µM, the GI50 [25, 39] was 1.35 µM and the GI50 [26, 38] was 3.18 µM. The GI50 [26, 39] was 3.16 µM, the GI50 [27, 48] was 5.85 µM and the GI50 [27, 49] was 5.89 µM. It also gave a GI50 [28, 38] of 4.77 µM, a GI50 [28, 39] of 4.79 µM and a GI50 [29, 38] of 3.4 µM. For the same compound, the GI50 [29, 39] was 3.39 µM, the GI50 [30, 38] was 3.4 µM and the GI50 [30, 39] was 3.39 µM. For the same compound, the GI50 [31, 38] was 4.97 µM, the GI50 [31, 39] was 5.01 µM and the GI50 [32, 38] was 3.96 µM. It also gave a GI50 [32, 39] of 3.98 µM, a GI50 [33, 38] of 2.63 µM and a GI50 [33, 39] of 2.63 µM. The GI50 [34, 38] was 2.5 µM, the GI50 [34, 39] was 2.51 µM and the GI50 [35, 50] was 4.47 µM. The GI50 [35, 51] was 4.42 µM, the GI50 [36, 38] was 3.38 µM and the GI50 [36, 39] was 3.39 µM.
